Laboratory results from ChEMBL document CHEMBL2073815, “Induction of hepatic phase II drug-metabolizing enzymes by 1,7-phenanthroline in rats is accompanied by induction of MRP3” (Drug Metab Dispos, 2003).

Key:
Type in all cases: functional, organism-based
[1] = target: T1, ATP-binding cassette sub-family C member 3 (Rattus norvegicus, UniProt O88563); test: (§1) TP_TRANSPORTER: quantitative PCR in vivo, liver of male Sprague-Dawley rat
[2] = target: T2, Solute carrier organic anion transporter family member 1A4 (Rattus norvegicus, UniProt O35913); test: as §1
T2 sequence (O35913 whole entry): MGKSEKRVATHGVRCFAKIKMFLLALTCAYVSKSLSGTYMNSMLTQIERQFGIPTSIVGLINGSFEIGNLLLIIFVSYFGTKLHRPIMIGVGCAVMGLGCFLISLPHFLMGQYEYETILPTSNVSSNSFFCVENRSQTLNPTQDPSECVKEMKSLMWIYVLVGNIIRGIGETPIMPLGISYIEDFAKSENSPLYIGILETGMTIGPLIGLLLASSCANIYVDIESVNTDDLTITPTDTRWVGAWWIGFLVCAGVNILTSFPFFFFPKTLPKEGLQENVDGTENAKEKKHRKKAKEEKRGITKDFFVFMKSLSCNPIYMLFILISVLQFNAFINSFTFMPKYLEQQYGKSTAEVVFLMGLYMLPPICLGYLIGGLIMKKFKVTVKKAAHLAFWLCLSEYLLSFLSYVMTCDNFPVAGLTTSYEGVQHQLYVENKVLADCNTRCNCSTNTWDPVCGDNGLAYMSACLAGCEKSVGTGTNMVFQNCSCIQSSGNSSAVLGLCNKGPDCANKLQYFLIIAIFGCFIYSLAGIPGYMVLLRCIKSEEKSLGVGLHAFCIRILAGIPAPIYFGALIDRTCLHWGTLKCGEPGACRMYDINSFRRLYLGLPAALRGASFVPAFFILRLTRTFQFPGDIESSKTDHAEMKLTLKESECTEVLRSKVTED

[3] = target: T1, ATP-binding cassette sub-family C member 3; test: TP_TRANSPORTER: quantitative PCR in vivo, […] of male Sprague-Dawley rat

Measured: Activity

T1 sequence (O88563 whole entry): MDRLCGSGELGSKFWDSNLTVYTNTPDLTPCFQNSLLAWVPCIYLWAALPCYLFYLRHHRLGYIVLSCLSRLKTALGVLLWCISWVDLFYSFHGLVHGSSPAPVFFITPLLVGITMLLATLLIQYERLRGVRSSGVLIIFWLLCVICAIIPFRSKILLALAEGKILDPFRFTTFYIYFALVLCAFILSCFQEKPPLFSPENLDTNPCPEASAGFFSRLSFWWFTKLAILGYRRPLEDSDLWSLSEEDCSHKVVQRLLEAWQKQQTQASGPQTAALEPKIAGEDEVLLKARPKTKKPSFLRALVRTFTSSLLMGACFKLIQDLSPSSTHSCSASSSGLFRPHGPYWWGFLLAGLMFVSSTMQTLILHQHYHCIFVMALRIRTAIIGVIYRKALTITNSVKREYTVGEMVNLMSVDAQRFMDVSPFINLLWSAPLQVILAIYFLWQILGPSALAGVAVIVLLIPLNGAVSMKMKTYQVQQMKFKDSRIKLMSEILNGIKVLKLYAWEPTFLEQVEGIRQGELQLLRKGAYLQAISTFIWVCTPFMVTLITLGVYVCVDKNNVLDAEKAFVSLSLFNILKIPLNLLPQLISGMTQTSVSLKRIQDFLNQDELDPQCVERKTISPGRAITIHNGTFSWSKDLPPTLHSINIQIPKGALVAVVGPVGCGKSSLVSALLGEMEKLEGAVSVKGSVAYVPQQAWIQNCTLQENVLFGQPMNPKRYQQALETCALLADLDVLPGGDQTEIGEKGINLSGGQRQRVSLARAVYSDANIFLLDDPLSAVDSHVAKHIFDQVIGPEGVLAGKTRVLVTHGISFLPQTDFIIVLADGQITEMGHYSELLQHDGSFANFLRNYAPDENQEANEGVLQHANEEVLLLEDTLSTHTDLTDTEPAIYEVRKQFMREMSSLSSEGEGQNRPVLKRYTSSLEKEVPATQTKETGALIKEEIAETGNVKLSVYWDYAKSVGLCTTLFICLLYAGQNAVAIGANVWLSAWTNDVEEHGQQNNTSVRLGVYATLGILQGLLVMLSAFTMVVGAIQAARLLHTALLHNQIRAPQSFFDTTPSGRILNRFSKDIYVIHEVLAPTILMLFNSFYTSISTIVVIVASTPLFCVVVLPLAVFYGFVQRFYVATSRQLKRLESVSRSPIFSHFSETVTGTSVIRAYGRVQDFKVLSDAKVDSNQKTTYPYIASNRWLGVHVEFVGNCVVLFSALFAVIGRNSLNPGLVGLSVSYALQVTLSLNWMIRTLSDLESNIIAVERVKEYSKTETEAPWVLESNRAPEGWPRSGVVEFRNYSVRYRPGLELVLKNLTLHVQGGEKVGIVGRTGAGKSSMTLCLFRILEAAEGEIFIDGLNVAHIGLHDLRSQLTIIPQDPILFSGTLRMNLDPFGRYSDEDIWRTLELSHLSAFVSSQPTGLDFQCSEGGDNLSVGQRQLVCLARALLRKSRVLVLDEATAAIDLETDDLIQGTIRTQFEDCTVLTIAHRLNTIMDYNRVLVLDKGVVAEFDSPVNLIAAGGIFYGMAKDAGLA

c1cnc2c(c1)ccc1ncccc12
inducer []: [1] | [2] | [3]
